Assay results taken from ChEMBL document CHEMBL1151605, “2-Heterocyclic indole-3-sulfones as inhibitors of HIV-1 reverse transcriptase” (Bioorg Med Chem Lett, 1995).

Legend:
[1] = biological target: Human immunodeficiency virus type 1 reverse transcriptase (Human immunodeficiency virus 1, UniProt Q72547, K103N); experiment: Inhibitory activity against K103N mutant of HIV-1 reverse transcriptase
MT4 = experiment: Antiviral activity in cell culture tested ex vivo in MT-4 cells using the IIIb strain of HIV-1; assay type: functional; conditions: Homo sapiens, read-out: CIC95
[2] = biological target: Human immunodeficiency virus type 1 reverse transcriptase (Human immunodeficiency virus 1, UniProt Q72547, K103N/Y181C); experiment: Inhibitory activity against K103N/Y181C double mutant of HIV-1 reverse transcriptase

Row | SMILES | IC50 [1] [nM] | IC95 (MT4) [nM] | IC50 [2] [nM]
1 | O=S(=O)(c1ccccc1)c1c(C2=NCCS2)[nH]c2ccc(Cl)cc12 | 1250 |  | 
2 | CCCc1[nH]c(-c2[nH]c3ccc(Cl)cc3c2S(=O)(=O)c2ccccc2)nc1C |  | 50 | 
3 | O=S(=O)(c1ccccc1)c1c(-c2nc3c([nH]2)CCCC3)[nH]c2ccc(Cl)cc12 |  | 50 | 
4 | O=S(=O)(c1ccccc1)c1c(-c2ncc[nH]2)[nH]c2ccc(Cl)cc12 |  | 2 | 
5 | Cc1nc(-c2[nH]c3ccc(Cl)cc3c2S(=O)(=O)c2ccccc2)[nH]c1C | 22 | 12 | > 30000
6 | Cc1cnc(-c2[nH]c3ccc(Cl)cc3c2S(=O)(=O)c2ccccc2)[nH]1 |  | 12 | 
7 | CCc1nc(-c2[nH]c3ccc(Cl)cc3c2S(=O)(=O)c2ccccc2)[nH]c1CC |  | 50 | 
8 | Nc1nc(-c2[nH]c3ccc(Cl)cc3c2S(=O)(=O)c2ccccc2)cs1 |  | > 200 | 
